The text below walks through data of article PMC4706877, “Antibacterial and Cytotoxic Activity of Compounds Isolated from Flourensia oolepis” (Evidence-based Complementary and Alternative Medicine : eCAM, 2015).

Converted amounts (≈) assume the structure as drawn. Counter-ions that a name gives are not always drawn. Like-named read-outs stand apart in the source and are kept apart here.

Assay [1] relates to Escherichia coli (ATCC 25922). In words: Agar dilution MIC / MBC. In kind it is cell-based. As to conditions: ATCC25922, E. coli; for MIC: agar dilution, 24 h; for MBC: value in parentheses. Here is the method: (§1) This isolate was identified by conventional biochemical assays and by the commercial system API20E (bioMérieux SA, Mercy L'Etoile, France). Antimicrobial resistances were determined by disk diffusion susceptibility testing (Kirby-Bauer Method) according to CLSI [15]. Bacterial suspensions were prepared on sterile saline from each organism grown overnight. Turbidity was spectrophotometrically adjusted to the McFarland 0.5 standard. Dilutions were carried out with sterile saline to give an adjusted concentration of 1.5 × 10^7 colony-forming units/mL.
(§2) Three independent experiments were carried out. […] For reading, visual observations were carried out.

The test system of assay [2] is Staphylococcus aureus subsp. aureus (ATCC 6538). In words: Agar dilution MIC / MBC. As to conditions: Staphylococcus aureus, ATCC6538, S. aureus; for MIC: agar dilution, 24 h; for MBC: value in parentheses, read-out: MBC. Type of assay: cell-based. Here is the method:
as §1, §2
On the technique in general: In agar dilution, organisms are placed on agar that contains the substance at set levels.

Assay [3] has as its system tetracycline, erythromycin, and polymyxin-resistant Proteus mirabilis (Pr2921). In words: Agar dilution MIC / MBC. In kind it is cell-based. As to conditions: P. mirabilis; for MIC: agar dilution, 24 h; for MBC: value in parentheses. Here is the method:
as §1, §2

The test system of assay [4] is Pseudomonas aeruginosa (ATCC 27853). In words: Agar dilution MIC / MBC. In kind it is cell-based. As to conditions: ATCC27853, P. aeruginosa; for MIC: agar dilution, 24 h; for MBC: value in parentheses. Here is the method:
as §1, §2

For assay [5], the system named is Enterococcus faecalis (ATCC 29212). Briefly: Agar dilution MIC / MBC. In kind it is cell-based. As to conditions: ATCC29212, E. faecalis; for MIC: agar dilution, 24 h; for MBC: value in parentheses. Here is the method: as §1, §2
Assay [6] concerns Lucena 1 cells (MDR, P-glycoprotein overexpressing). In words: cells. In kind it is cell-based, human. As to conditions: for IC50: Homo sapiens, Lucena 1, 72 h, Lucena 1, MTT, 72 h, read-out: IC50 values and 95% confidence limits (lower, upper). Here is the method:
(§3) The HEK293T non-tumor derived cell line and human isolated mononuclear cells (PBMC) were also tested. […] Cells were cultured at 37°C in a 5% CO2 humidified environment.
(§4) The latter concentration was then used for maintenance of the cells. Lucena 1 were continuously cultured in the presence of 60 nM DOX. Both cell lines were grown in drug-free medium 3-4 days before the experiments. Overexpression of P-glycoprotein (P-gp) in both MDR variants was verified by flow cytometry using FITC-labeled mouse anti-human P-gp (BD Pharmingen, USA). Cells were subcultured twice a week from frozen stocks and used before the 20th passage. All experiments were performed with cells in the logarithmic growth phase with cell viabilities over 90%, determined by trypan blue staining.
(§5) To investigate the cytotoxic potential of the isolated compounds, the MTT colorimetric assay was performed. […] The compounds were evaluated at a final maximum concentration of 100 μM. After 72 hours, 20 μL of 5 mg/mL solution of MTT in sterile PBS was added to each well and further incubated for 4 h. Then, the supernatants were removed and replaced with 100 μL DMSO to solubilize the resulting purple formazan crystals produced from metabolically viable cells. Absorbance was measured with an iMark micro-plate reader (Bio-Rad, USA) at 595 nm. Two wells were used for each concentration of the products assayed and three independent experiments were performed. […] The percentage of cytotoxic activity of the assayed compounds was determined by the following formula: cytotoxicity (%) = [1 − (optical density of treated cells − optical density DMSO)/(optical density of ethanol control cells − optical density DMSO)] × 100.
(§6) Data were analyzed by one-way analysis of variance (ANOVA) and means were compared using Bonferroni's comparison test, with p ≤ 0.05 considered as statistically significant.

Assay [7] concerns CEM/ADR5000 cells (MDR, P-glycoprotein overexpressing). Briefly: cells. As to conditions: for IC50: Homo sapiens, ADR5000, 72 h, CEM/ADR5000, MTT, 72 h, read-out: IC50 values and 95% confidence limits (lower, upper). In kind it is cell-based, human. Here is the method:
as §3, §4, §5, §6

Assay [8] has as its system CCRF-CEM acute lymphoblastic leukemia cells. In words: MTT cell proliferation assay. In kind it is cell-based, human. Here is the method:
as §3, §5, §6
(In general: Tetrazolium dyes change colour on reduction, which living cells bring about.)

Assay [9] concerns K562 chronic myeloid leukemia cells. Briefly: MTT cell proliferation assay. Type of assay: cell-based, human. As to conditions: Homo sapiens, K562, MTT, 72 h, read-out: IC50 values and 95% confidence limits (lower, upper). Here is the method:
as §3, §5, §6

Assay [10] has as its system bacteria. In words: Antibacterial test of fractions during bioguided isolation. As to conditions: at 2 mg/mL.
Procedure: MICs were determined by the agar dilution test according to CLSI [15] with some modifications [7]. Briefly, the plate count agar medium (PCA, Oxoid Ltd, UK) was added in duplicate to the suitable amount of fraction or pure compound previously dissolved in ethanol. […] After solidification of the agar in 6-well plates (Greiner Bio-One, Germany), 2 μL of each bacterial suspension was placed on the agar surface. Three independent experiments were carried out. […] For reading, visual observations were carried out. Nitro blue tetrazolium (NBT, Sigma-Aldrich CO, USA) solution in saline phosphate buffer (PBS) was applied on one spot for confirmation. Plates containing only the culture medium, with or without the addition of the dissolution solvent, were used as controls. Positive controls with commercial gentamicin sulfate or erythromycin dissolved in sterile water or ethanol, respectively, were simultaneously carried out.
The bactericidal effect was further studied from each concentration of product showing growth inhibition. […] At the end of this period, the minimum bactericidal concentration (MBC) values, defined as the lowest concentration with absence of turbidity, were recorded.
The mark [11] stands for this setting: Homo sapiens; CCRF-CEM; MTT, 72 h; read-out: IC50 values and 95% confidence limits (lower, upper).

In general, MIC refers to the smallest concentration in the dilution series that meets the test's criterion for growth inhibition. Low readings indicate a more susceptible organism, high ones a less susceptible organism. A word on the MBC: it is the smallest concentration meeting the test's criterion for killing. On to `CNC(C)C1CCC(N)C(OC2C(N)CC(N)C(OC3OCC(C)(O)C(NC)C3O)C2O)O1` (stereo not drawn) [Gentamicin, Gentamicin sulfate, reference compound], for which the MIC in assay [1] was found to be 4 mg/L; in assay [2], 8 mg/L; in assay [3], 10 mg/L; in assay [4], 4 mg/L; in assay [5], 8 mg/L. Further, the MBC in assay [1] is 8 mg/L; in assay [2] it was 10 mg/L; in [3], 10 mg/L; in assay [4], 4 mg/L; in assay [5], 10 mg/L.

For orientation: IC50 means the point on the concentration scale where inhibition reaches its midpoint. For the molecule `O=C1C[C@@H](c2ccccc2)Oc2cc(O)cc(O)c21` [Compound 3, pinocembrin], the minimal inhibitory concentration (MIC) in [1] was 500 mg/L (≈ 1950 µM); in assay [2], 15 mg/L (≈ 58.5 µM); in assay [3] it was above 500 mg/L; in assay [4], above 500 mg/L; in [5] it was 62 mg/L (≈ 242 µM). Besides, the MBC in assay [1] is 500 mg/L (≈ 1950 µM); in [2] it was 62 mg/L (≈ 242 µM); in assay [3], above 500 mg/L; in assay [4], above 500 mg/L; in assay [5], 125 mg/L (≈ 488 µM). Moreover, the half-inhibitory concentration (IC50) was above 100 µM in [6], 53.5 µM in assay [7], 58.9 µM in assay [8] (setting [11]) and above 100 µM in assay [9]. Also, in assay [10], the bactericidal activity result is “bactericidal effects”.

For the molecule `CC[C@H]1OC(=O)[C@H](C)[C@@H](O[C@H]2C[C@@](C)(OC)[C@@H](O)[C@H](C)O2)[C@H](C)[C@@H](O[C@@H]2O[C@H](C)C[C@H](N(C)C)[C@H]2O)[C@](C)(O)C[C@@H](C)C(=O)[C@H](C)[C@@H](O)[C@]1(C)O` [Erythromycin, erythromycin, reference compound], the minimum inhibitory concentration (MIC) came to 125 mg/L (≈ 170 µM) in assay [1]; 1 mg/L (≈ 1.36 µM) in [2]; 500 mg/L (≈ 681 µM) in [3]; 62 mg/L (≈ 84.5 µM) in assay [4]; 1 mg/L (≈ 1.36 µM) in [5]. Also, the minimum bactericidal concentration (MBC) is above 500 mg/L in assay [1]; 60 mg/L (≈ 81.8 µM) in assay [2]; above 500 mg/L in assay [3]; 500 mg/L (≈ 681 µM) in assay [4]; 30 mg/L (≈ 40.9 µM) in [5].

On to `COc1cc(C2CC(=O)c3ccc(O)cc3O2)ccc1O` (stereo not drawn) [Compound 5, 7,4′-dihydroxy-3′-methoxyflavanone], for which the MIC in [1] was above 500 mg/L; in assay [2], 250 mg/L (≈ 873 µM); in [3], above 500 mg/L; in assay [4], above 500 mg/L; in [5], 500 mg/L (≈ 1750 µM). For the same molecule, the MBC in assay [1], in assay [2], in assay [3], in assay [4] and in [5] was above 500 mg/L each time. Also, the 50% inhibitory concentration (IC50) in assay [6] was above 100 µM; in assay [7] it was 30.4 µM; in assay [8] (setting [11]), 24.8 µM; in [9], above 100 µM.

Take `O=C(/C=C/c1ccc(O)cc1)c1ccc(O)cc1O` [Compound 2, isoliquiritigenin]: the MIC in [1] was above 500 mg/L; in assay [2], 250 mg/L (≈ 976 µM); in assay [3], above 500 mg/L; in assay [4], above 500 mg/L; in assay [5], 500 mg/L (≈ 1950 µM). Moreover, the MBC is above 500 mg/L in assay [1]; 500 mg/L (≈ 1950 µM) in [2]; above 500 mg/L in [3]; above 500 mg/L in assay [4]; above 500 mg/L in assay [5]. Also, the IC50 in assay [6] is above 100 µM; in assay [7], 51.9 µM; in [8] (setting [11]), 58.1 µM; in assay [9], above 100 µM.

Take `COc1cccc2c1C(=O)c1c(O)c3c(c(O)c1C2=O)C[C@@](O)(C(=O)CO)C[C@@H]3O[C@H]1C[C@H](N)[C@H](O)[C@H](C)O1` [Doxorubicin, Doxorubicin hydrochloride, reference compound]: the “resistant index (RI) = IC50 resistant cells/IC50 sensitive cells” value is given as at least 16.8 in assay [6] and at least 518.8 in assay [7] (CEM/ADR5000 vs CCRF-CEM). The IC50 in assay [6] is above 69 µM; in assay [7], above 69 µM; in assay [8] (Homo sapiens, CCRF-CEM, 72 h, CCRF-CEM; MTT, 72 h; read-out: IC50 values and 95% confidence limits (lower, upper)), 0.133 µM; in assay [9] (K562, 72 h), 4.1 µM.
